Data on 29 compounds can be found in patent US11958844B2, “1,3,4-oxadiazole derivative compounds as histone deacetylase 6 inhibitor, and pharmaceutical composition comprising the same” (Chong Kun Dang Pharmaceutical Corp., priority 2018, dated 2024).

Molecules are shown by their SMILES.

This assay concerns the target T1, HDAC6 human recombinant (Homo sapiens, UniProt Q9UBN7).
T1 sequence (Q9UBN7 1-1215): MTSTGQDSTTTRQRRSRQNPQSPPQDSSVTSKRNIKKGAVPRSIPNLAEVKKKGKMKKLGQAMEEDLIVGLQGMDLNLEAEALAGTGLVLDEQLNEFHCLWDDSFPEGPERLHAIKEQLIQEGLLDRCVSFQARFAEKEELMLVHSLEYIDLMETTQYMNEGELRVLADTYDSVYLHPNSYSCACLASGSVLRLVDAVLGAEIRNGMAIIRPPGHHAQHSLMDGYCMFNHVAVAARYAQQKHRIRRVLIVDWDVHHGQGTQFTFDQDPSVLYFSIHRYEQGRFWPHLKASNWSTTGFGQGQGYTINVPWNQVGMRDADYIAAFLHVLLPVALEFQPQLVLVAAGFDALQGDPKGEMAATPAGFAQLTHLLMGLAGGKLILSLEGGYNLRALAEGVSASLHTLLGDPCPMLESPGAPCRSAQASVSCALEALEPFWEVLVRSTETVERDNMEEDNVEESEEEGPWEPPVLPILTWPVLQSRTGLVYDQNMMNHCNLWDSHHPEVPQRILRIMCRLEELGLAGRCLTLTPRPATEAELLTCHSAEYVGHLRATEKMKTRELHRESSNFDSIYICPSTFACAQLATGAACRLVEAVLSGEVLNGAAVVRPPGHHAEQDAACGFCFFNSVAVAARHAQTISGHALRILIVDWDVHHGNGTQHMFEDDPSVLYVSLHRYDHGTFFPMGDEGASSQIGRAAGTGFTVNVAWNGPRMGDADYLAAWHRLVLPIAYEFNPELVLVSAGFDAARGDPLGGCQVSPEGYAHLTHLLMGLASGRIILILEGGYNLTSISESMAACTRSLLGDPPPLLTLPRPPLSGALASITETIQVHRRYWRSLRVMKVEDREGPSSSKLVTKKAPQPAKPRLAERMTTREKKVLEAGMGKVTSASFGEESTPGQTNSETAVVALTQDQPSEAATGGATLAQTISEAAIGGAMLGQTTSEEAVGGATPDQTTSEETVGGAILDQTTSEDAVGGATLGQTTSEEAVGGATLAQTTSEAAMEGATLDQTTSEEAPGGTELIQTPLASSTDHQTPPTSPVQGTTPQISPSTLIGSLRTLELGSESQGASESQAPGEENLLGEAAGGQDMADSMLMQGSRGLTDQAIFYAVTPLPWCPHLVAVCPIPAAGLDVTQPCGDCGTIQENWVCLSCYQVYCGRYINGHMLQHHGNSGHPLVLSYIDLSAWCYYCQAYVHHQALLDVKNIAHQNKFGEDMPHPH
In words: HDAC enzyme activity inhibition (in vitro), fluorimetric HDAC6 assay. The class given is biochemical. As to conditions: samples at 0.1, 1, 10, 100 and 1000 nM, 37° C. 60 minutes, fluorescence Ex 390, Em 460. How it is done: To identify this, HDAC1/6 enzyme selectivity and cell selectivity (HDAC1: histone acetylation/HDAC6: tubulin acetylation) were investigated accordingly.
An HDAC enzyme inhibitory ability of a test material was measured by means of HDAC1 Fluorimetric Drug Discovery Assay Kit (Enzolifesciences: BML-AK511) and HDAC6 human recombinant (Calbiochem: 382180). For an HDAC1 assay, samples were treated at a concentration of 100, 1000 and 10000 nM. For an HDAC6 assay, samples were treated at a concentration of 0.1, 1, 10, 100 and 1000 nM. After such sample treatment, a reaction was continued at 37° C. for 60 minutes, then treated with a developer, and then subjected to reaction at 37° C. for 30 minutes, after which fluorescence intensity (Ex 390, Em 460) was measured by means of FlexStation3 (Molecular device).

Consider `O=C(Cn1ccc(-c2nnc(C(F)F)o2)cc1=O)c1ccc(Cl)s1` [Compound 56, 1-(2-(5-chlorothiophene-2-yl)-2-oxoethyl)-4-(5-(difluoromethyl)-1,3,4-oxadiazole-2-yl)pyridine-2(1H)-one], for which the IC50 was determined as 126 nM.

For `CC(C)CCn1ccc(-c2nnc(C(F)F)o2)cc1=O` [Compound 53], the IC50 turned out to be 388 nM.

Take `O=c1cc(-c2nnc(C(F)F)o2)ccn1Cc1ccccc1F` [Compound 17, 4-(5-(difluoromethyl)-1,3,4-oxadiazole-2-yl)-1-(2-fluorobenzyl)pyridine-2(1H)-one]: the IC50 is 507 nM.

With `O=C(N[C@@H](Cn1ccc(-c2nnc(C(F)F)o2)cc1=O)c1ccccc1)N1CCOCC1` [Compound 57, (R)—N-(2-(4-(5-(difluoromethyl)-1,3,4-oxadiazole-2-yl)-2-oxopyridine-1(2H)-yl)-1-phenylethyl)morpholine-4-carboxamide], the IC50 worked out at 301 nM.

In the case of `O=c1cc(-c2nnc(C(F)(F)F)o2)ccn1Cc1cc(F)c(F)cc1F` [Compound 30, 1-(2,4,5-trifluorobenzyl)-4-(5-(trifluoromethyl)-1,3,4-oxadiazole-2-yl)pyridine-2(1H)one], the IC50 stood at 1790 nM.

Regarding `CCN(CC)CCn1ccc(-c2nnc(C(F)F)o2)cc1=O` [Compound 11, 1-(2-(diethylamino)ethyl)-4-(5-(difluoromethyl)-1,3,4-oxadiazole-2-yl)pyridine-2(1H)one], the IC50 came out at 2250 nM.

Turning to `COc1ccc(C(=O)Cn2ccc(-c3nnc(C(F)F)o3)cc2=O)c(OC)c1` [Compound 20, 4-(5-(difluoromethyl)-1,3,4-oxadiazole-2-yl)-1-(2-(2,4-dimethoxyphenyl)-2-oxoethyl) pyridine-2(1H)-one], the IC50 was found to be 257 nM.

As to `O=C(Cn1ccc(-c2nnc(C(F)F)o2)cc1=O)c1ccc2c(c1)OCCO2` [Compound 21], the IC50 stood at 381 nM.

As for `O=C(Cn1ccc(-c2nnc(C(F)F)o2)cc1=O)c1coc2ccccc12` [Compound 51, 1-(2-(benzofuran-3-yl)-2-oxoethyl)-4-(5-(difluoromethyl)-1,3,4-oxadiazole-2-yl)pyridine-2(1H)-one], the IC50 was 284 nM.

`O=c1cc(-c2nnc(C(F)F)o2)ccn1C/C=C/c1ccccc1` [Compound 5, 1-cinnamyl-4-(5-(difluoromethyl)-1,3,4-oxadiazole-2-yl)pyridine-2(1H)-one]: the IC50 turned out to be 40 nM.

As to `O=C(Cn1ccc(-c2nnc(C(F)F)o2)cc1=O)OCc1ccccc1` [Compound 15, benzyl 2-(4-(5-(difluoromethyl)-1,3,4-oxadiazole-2-yl)-2-oxopyridine-1(2H)-yl)acetate], the IC50 came to 74 nM.

Consider `CCn1ccc(-c2nnc(C(F)(F)F)o2)cc1=O` [Compound 49, 1-ethyl-4-(5-(trifluoromethyl)-1,3,4-oxadiazole-2-yl)pyridine-2(1H)-one], for which the IC50 was determined as 1590 nM.

Turning to `CCn1ccc(-c2nnc(C(F)F)o2)cc1=O` [Compound 55, 4-(5-(difluoromethyl)-1,3,4-oxadiazole-2-yl)-1-ethylpyridine-2(1H)-one], the IC50 was 284 nM.

Turning to `O=C(Cn1ccc(-c2nnc(C(F)(F)F)o2)cc1=O)c1ccccc1` [Compound 42, 1-(2-oxo-2-phenylethyl)-4-(5-(trifluoromethyl)-1,3,4-oxadiazole-2-yl)pyridine-2(1H)-one], the IC50 is 1910 nM.

Take `COc1cccc(C(=O)Cn2ccc(-c3nnc(C(F)F)o3)cc2=O)c1` [Compound 22, 4-(5-(difluoromethyl)-1,3,4-oxadiazole-2-yl)-1-(2-(3-methoxyphenyl)-2-oxoethyl)pyridine-2(1H)-one]: the IC50 was determined as 427 nM.

For the compound `COc1cc(CCn2ccc(-c3nnc(C(F)F)o3)cc2=O)cc(OC)c1` [Compound 8, 4-(5-(difluoromethyl)-1,3,4-oxadiazole-2-yl)-1-(3,5-dimethoxyphenethyl)pyridine-2(1H)-one], the IC50 was 253 nM.

In the case of `O=C(Cn1ccc(-c2nnc(C(F)(F)F)o2)cc1=O)c1cccs1` [Compound 36, 1-(2-oxo-2-(thiophene-2-yl)ethyl)-4-(5-(trifluoromethyl)-1,3,4-oxadiazole-2-yl)pyridine-2(1H)-one], the 50% inhibitory concentration (IC50) was 935 nM.

For `O=c1cc(-c2nnc(C(F)F)o2)ccn1Cc1ccc([N+](=O)[O-])cc1` [Compound 26, 4-(5-(difluoromethyl)-1,3,4-oxadiazole-2-yl)-1-(4-nitrobenzyl)pyridine-2(1H)-one], the IC50 came to 272 nM.

`CC(C)=CCn1ccc(-c2nnc(C(F)F)o2)cc1=O` [Compound 54, 4-(5-(difluoromethyl)-1,3,4-oxadiazole-2-yl)-1-(3-methylbut-2-en-1-yl)pyridine-2(1H)-one]: the IC50 stood at 663 nM.

Turning to `O=C(Cn1ccc(-c2nnc(C(F)(F)F)o2)cc1=O)c1ccc(Cl)s1` [Compound 37, 1-(2-(5-chlorothiophene-2-yl)-2-oxoethyl)-4-(5-(trifluoromethyl)-1,3,4-oxadiazole-2-yl)pyridine-2(1H)-one], the IC50 is 1300 nM.

Regarding `COc1ccc(OC)c(C(=O)Cn2ccc(-c3nnc(C(F)F)o3)cc2=O)c1` [Compound 24, 4-(5-(difluoromethyl)-1,3,4-oxadiazole-2-yl)-1-(2-(2,5-dimethoxyphenyl)-2-oxoethyl) pyridine-2(1H)-one], the IC50 was 284 nM.

Turning to `O=c1cc(-c2nnc(C(F)F)o2)ccn1Cc1ccc2ccccc2c1` [Compound 1, 4-(5-(difluoromethyl)-1,3,4-oxadiazole-2-yl)-1-(naphthalene-2-ylmethyl)pyridine-2(1H)-one], the IC50 is 82 nM.

Consider `O=C(Cn1ccc(-c2nnc(C(F)F)o2)cc1=O)c1ccc2ccccc2c1` [Compound 7, 4-(5-(difluoromethyl)-1,3,4-oxadiazole-2-yl)-1-(2-(naphthalene-2-yl)-2-oxoethyl)pyridine-2(1H)-one], for which the IC50 came to 364 nM.

Consider `O=c1cc(-c2nnc(C(F)F)o2)ccn1Cc1cccc(F)c1` [Compound 14, 4-(5-(difluoromethyl)-1,3,4-oxadiazole-2-yl)-1-(3-fluorobenzyl)pyridine-2(1H)-one], for which the IC50 stood at 108 nM.

For the compound `O=C(Cn1ccc(-c2nnc(C(F)F)o2)cc1=O)c1ccc(Cl)cc1` [Compound 19, 1-(2-(4-chlorophenyl)-2-oxoethyl)-4-(5-(difluoromethyl)-1,3,4-oxadiazole-2-yl)pyridine-2(1H)-one], the IC50 amounted to 351 nM.

Consider `O=C(Cn1ccc(-c2nnc(C(F)(F)F)o2)cc1=O)c1coc2ccccc12` [Compound 38, 1-(2-(benzofuran-3-yl)-2-oxoethyl)-4-(5-(trifluoromethyl)-1,3,4-oxadiazole-2-yl)pyridine-2(1H)-one], for which the IC50 came to 2390 nM.

Take `O=C(Cn1ccc(-c2nnc(C(F)(F)F)o2)cc1=O)OCc1ccccc1` [Compound 40, benzyl 2-(2-oxo-4-(5-(trifluoromethyl)-1,3,4-oxadiazole-2-yl)pyridine-1(2H)-yl)acetate]: the IC50 was 945 nM.

In the case of `O=C1c2ccccc2C(=O)N1CCCCn1ccc(-c2nnc(C(F)F)o2)cc1=O` [Compound 29, 2-(4-(4-(5-(difluoromethyl)-1,3,4-oxadiazole-2-yl)-2-oxopyridine-1(2H)-yl)butyl)isoindoline-1,3-dione], the IC50 turned out to be 261 nM.

On to `O=C(Cn1ccc(-c2nnc(C(F)F)o2)cc1=O)c1cccs1` [Compound 50, 4-(5-(difluoromethyl)-1,3,4-oxadiazole-2-yl)-1-(2-oxo-2-(thiophene-2-yl)ethyl)pyridine-2(1H)-one], for which the IC50 was 238 nM.
